Converted amounts (≈) assume the structure as drawn.
Tests used:
[1] = system: guinea pig tracheal strip; assay: Isolated trachea preparation (in vitro tracheal strip), pilocarpine-contracted; format: cell-based; settings: relative to theophylline = 1.00, molar basis
Description: With the exception of theophylline, all compounds were administered as the free base dissolved or suspended in appropriate aqueous vehicles. […] The ethylenediamine portion of the molecule is pharmacologically inert, but renders solubility and convenience of use (Simons et al., S. Med. Journ. 68:802, 1975). For the purpose of comparison, aminophylline was considered to contain 80% free theophylline by weight (Piafsky and Ogilvie, New England J. Med. 292: 1218, 1975). Final comparisons were always based on the calculated dose of theophylline. Because of obvious differences in molecular weights, all compounds were compared on a molar basis rather than on absolute weight.
1. Isolated Trachea Preparation
The in vitro bronchodilator activity of each compound was estimated on the spirally cut guinea pig tracheal strip preparation as described by Constantine, (J. Pharm. Pharmacol. 17:384, 1965). Large Camm English Short Hair male guinea pigs (800-1200 gm.) were employed in order to obtain three spiral tracheal strips from one animal. Strips were suspended in 50 ml. tissue baths containing modified Krebs-Henseleit solution at 38° C. and aerated with 95% O2 /5% CO2. Pilocarpine HCl, 1 mg/liter, was added to the solution to maintain a sustained contraction and to promote rapid recovery of the muscle. A Grass FT 0.03 force displacement transducer was used to electronically record muscle response. Concentration-relaxation relationships were obtained for each compound by logarithmically increasing bath concentration until maximum (100%) relaxation was observed. Tissues were washed between doses and allowed 30 minutes to recover. Linear regression analysis of percent response vs. log of bath concentration allowed calculation of a slope and EC50 value (concentration producing 50% of maximum relaxation) for each compound. Each dose of each compound was tested a minimum of six times.

[2] = Oral LD50 / oral PD50 ratio in guinea pigs; settings: guinea pig, in vivo, median lethal dose / median protective dose, relative to theophylline, read-out: Oral LD50 / Oral PD50 (G. Pig), relative
Description: where C is the average control preconvulsive time and T is the test preconvulsive time after compound administration, both in seconds. Animals with control preconvulsive times greater than 2 minutes were not used and if test preconvulsive time was longer than 10 minutes, 100% protection was arbitrarily assumed. The dose of each compound causing 50% protection (PD50) was calculated by the method of Litchfield and Wilcoxon (J. Pharmacol. Exp. Ther. 96:99, 1949).
The PD50 of each experimental compound was determined after both intraperitoneal and oral administration. A minimum of 3 dose levels and 6 animals per dose were employed to obtain meaningful dose-response data. Protection was assessed 15-20 minutes after intraperitoneal injection and 35-40 minutes after oral gavage with a flexible plastic tube. Animals were fasted overnight prior to oral dosing. All compounds were administered in aqueous solution in concentrations commensurate to a proper volume dose. Guinea pigs were utilized between 1 and 3 times but no animal received the same compound twice in succession with a minimum of 3 days rest between doses.
2. Oral LD50 in Guinea Pigs
The acute median lethal dose of each compound after oral administration was also determined in guinea pigs. Camm English Short Hair albino guinea pigs with sexes equally represented and ranging in weight from 255 to 311 gm. were used. A minimum of six animals per dose level were employed. Oral dosing was accomplished with a flexible tube inserted into the stomach. All guinea pigs were fasted overnight. […] The other compounds were dissolved in distilled water. Following administration of the appropriate doses, acute responses and lethalities were observed and LD50 values were calculated by the method of Litchfield and Wilcoxon (J. Pharmacol. Exp. Ther. 96:99, 1949).

[3] = Intravenous emetic study in dogs (ED50); format: in vivo, dog; settings: dog, in vivo, iv; read-out: ED50 (median emetic dose), I.V. Dogs
Description: (§1) Twelve adult mongrel dogs of either sex were employed to determine the median emetic dose (ED50) of all five experimental compounds after intravenous administration. […] Onset, frequency, and duration of emetic episodes were also recorded. The dogs were not fasted, were allowed at least 2 days rest between doses, and no animal received the same compound twice in succession. […] ED50 values were calculated according to the method of Litchfield and Wilcoxon (1949).

[4] = system: dogs; assay: Intravenous emetic study in dogs (ED50); format: in vivo, dog; settings: for Emetic effect, I.V. Dogs: estimated at HBD; for I.V. Emetic (Dogs), relative molar activity: relative to theophylline, molar basis
Description: as §1

[5] = system: dogs; assay: Oral minimum emetic dose in dogs; format: in vivo, dog; settings: for Emetic effect, P.O. Dogs: estimated at HBD; for Oral Emetic (Dogs), relative molar activity: relative to theophylline, molar basis
Description: 2. Oral Minimum Emetic Dose
The minimum dose of each compound which causes emesis after oral administration was estimated in a group of five adult mongrel dogs of either sex. Logarithmically increasing or decreasing (depending upon response) doses of each compound were administered orally via a flexible stomach tube. The compounds were dissolved in distilled water in concentrations to allow a constant volume dose of 5 ml/kg. […] Onset, frequency, and duration of emetic episodes as well as signs of CNS stimulation were also recorded.

[6] = system: mice; assay: Voluntary motor activity in mice (CNS stimulation); format: in vivo, male albino Swiss mice; settings: for CNS Activity, I.P. Mice / CNS Activity, I.P. Mice, change: estimated at HBD; for I.P. CNS Stimulation (Mice), relative molar activity: relative to theophylline, molar basis; for CNS Activity, I.P. Mice, change: voluntary motor activity
Description: F. Voluntary Motor Activity Studies in Mice In an attempt to quantitatively assess central nervous system activity, each compound was evaluated for its influence on voluntary motor activity in mice according to the method described by Dews (British J. Pharmacol. 8:46, 1953). Three cylindrical actophotometer cages were utilized simultaneously, each with six light beams and six photoelectric cells. Individual digital counters were connected to each activity cage. Male albino Swiss mice with weights ranging between 19 and 24 gm were used throughout. Compounds were dissolved in distilled water and were injected intraperitoneally in logarithmically spaced doses to groups of five mice, three groups per dose level. Control groups received saline.

[7] = Summary of relative molar activities (means and therapeutic efficacy); settings: for Therapeutic Efficacy: mean bronchodilator (therapeutic) activity divided by mean acute toxic and side effect activity; for Mean acute toxicity and side effect activity (relative molar): mean of acute toxicity and side effect lines of Table I; for Mean acute toxicity and side effect activity (relative molar) / Mean bronchodilator activity (relative molar): relative to theophylline; for Mean bronchodilator activity (relative molar): mean of bronchodilator lines of Table I
Description: ^g - Mean bronchodilator (therapeutic) activity divided by mean acute

[8] = Bronchodilator activity; settings: compared with theophylline
[9] = prior art statement; cited from earlier work
[10] = Solubility; settings: for Solubility in words: water solubility, qualitative
[11] = system: dogs; assay: Intravenous cardiovascular evaluation in dogs; settings: for CF (coronary flow) change / CO (cardiac output) change / CW (cardiac work) change / HR (heart rate) change / MAP (mean arterial pressure) change / MCF (myocardial contractile force) change / TPR (total peripheral resistance) change / Cardiovascular effects (Mean): i.v. dogs, estimated at HBD; for I.V. Cardiovascular (Dogs), mean relative molar activity: mean for arterial pressure, heart rate, contractile force, cardiac output, stroke volume, cardiac work, TPR, coronary flow and resistance, relative to theophylline; for Cardiovascular effects (Mean): mean of the cardiovascular changes
Description: Intravenous Cardiovascular Evaluation in Dogs
Thirteen adult mongrel dogs of either sex ranging in weight from 16.7 to 25.0 kg were employed to compare the overall intravenous cardiovascular activity of the five experimental compounds.
Dogs were anesthetized with pentobarbital sodium, 30-35 mg/kg i.v., fitted with a cuffed endotracheal tube, and ventilated with a Harvard Animal Respiratory Pump. A femoral vein was cannulated for i.v. drug administration. The left common carotid artery was cannulated and the cannula tip advanced into the aortic arch. A median sternotomy was performed and appropriately sized electromagnetic blood flow transducers (Biotronex) were placed around the ascending aorta and left anterior descending coronary artery. These procedures allowed continuous recording or calculation of the following parameters:
a. Mean Arterial Pressure (MAP); from the aortic cannula.
b. Heart Rate (HR); electronically from pulsatile ascending aortic flow.
c. Cardiac Output (CO); mean ascending aortic flow.
d. Myocardial Contractile Force (MCF); dQ/dt, the first derivative of maximum aortic flow rate, also known as peak aortic flow acceleration.
e. Stroke Volume (SV); quotient of CO/HR.
f. Cardiac Work (CW); product of CO X MAP.
g. Total Peripheral Resistance (TPR); quotient of MAP/CO.
h. Coronary Flow (CF); mean left anterior descending (LAD) coronary flow.
i. Coronary Resistance (CR); quotient of MAP/CF.
Logarithmically increasing doses of the appropriate compound were injected at 20-minute intervals. Responses were measured at 1, 2, 5, 10, 15 and 20 minutes after each dose and the average response during that period was calculated. Theophylline (aminophylline), dyphylline (II), and Compound V were employed in both 20 and 80 mg/ml concentrations in distilled water. Compounds III and IV were used in 10 and 30 mg/ml concentrations respectively.

[12] = system: dogs; assay: Acute intravenous diuretic evaluation in dogs; settings: for Diuretic Activity, I.V. Dogs: estimated at HBD; for I.V. Diuretic (Dogs), relative molar activity: relative to theophylline, molar basis
Description: Acute Intravenous Evaluation in Dogs
Compounds were tested in two dogs each. Animals were initially hydrated with 30 ml/kg of water, orally; then anesthetized with pentobarbital sodium, 30-35 mg/kg i.v. One femoral vein was cannulated and a constant intravenous infusion of warm saline (3 ml/min.) was begun and continued throughout the experiment. The contralateral femoral vein was also cannulated for intravenous drug administration. Urine was directly collected from bilateral ureter cannulae. After a 20-minute control collection period, the first dose of the appropriate compound was injected and urine was collected at 20-minute intervals for a period of one hour. This procedure was repeated for two additional doses of the same compound. Urine volume, pH, and sodium and potassium levels were determined for each 20-minute collection period and sums were obtained for the one-hour period after each dose. Test results, reported as successive changes in each parameter, were compared accordingly.

[13] = Acute toxicity and side effects; settings: compared with theophylline

SMILES: CCCn1c(=O)c2c(ncn2CC(C)O)n(CCC)c1=O (stereo not shown) [III, 7-(2-hydroxypropyl) 1,3-di-n-propylxanthine]
- Bronchodilator activity, In-Vitro (Tracheal Strip), relative molar activity [1]: 1.86
- selectivity ratio [2]: 5.43
- ED50 [3]: 0.7 mg/kg
- Emetic effect, I.V. Dogs [4]: Severe
- I.V. Emetic (Dogs), relative molar activity [4]: 134.17
- MED (minimum emetic dose), P.O. Dogs [5]: 0.8 mg/kg
- Emetic effect, P.O. Dogs [5]: Severe
- Oral Emetic (Dogs), relative molar activity [5]: 251.00
- CNS Activity, I.P. Mice [6]: Severe
- I.P. CNS Stimulation (Mice), relative molar activity [6]: 1.73
- CNS Activity, I.P. Mice, change [6]: -60 %Δ
- Therapeutic Efficacy [7]: 0.09
- Mean acute toxicity and side effect activity (relative molar) [7]: 36.55
- Mean bronchodilator activity (relative molar) [7]: 3.46
- Bronchodilator potency in words [8]: more potent bronchodilators than theophylline
- Side effects / tolerance in words (prior art) [9]: well tolerated
- solubility ([10]; water): 10 mg/mL (≈ 34 mM)
- Solubility in words [10]: low solubilities
- CF (coronary flow) change [11]: +8 %Δ
- CO (cardiac output) change [11]: +10 %Δ
- CW (cardiac work) change [11]: +2 %Δ
- HR (heart rate) change [11]: +21 ΔBPM
- MAP (mean arterial pressure) change [11]: -8 ΔmmHg
- MCF (myocardial contractile force) change [11]: +28 %Δ
- TPR (total peripheral resistance) change [11]: -15 %Δ
- I.V. Cardiovascular (Dogs), mean relative molar activity [11]: 1.16
- Cardiovascular effects (Mean) [11]: 13
- Diuretic Activity, I.V. Dogs [12]: Mild
- I.V. Diuretic (Dogs), relative molar activity [12]: 0.50
- Acute toxicity, emetic, cardiovascular, CNS and diuretic effects in words [13]: increased undesirable emetic, cardiovascular and central nervous system (CNS) effects

SMILES: Cn1c(=O)c2c(ncn2CC(O)CO)n(C)c1=O (stereo not shown) [Compound II, 7-(2,3-dihydroxypropyl) 1,3-dimethylxanthine]
- Bronchodilator activity, In-Vitro (Tracheal Strip), relative molar activity [1]: 0.16
- selectivity ratio [2]: 2
- ED50 [3]: 900 mg/kg
- Emetic effect, I.V. Dogs [4]: None
- I.V. Emetic (Dogs), relative molar activity [4]: 0.09
- MED (minimum emetic dose), P.O. Dogs [5]: > 362 mg/kg
- Emetic effect, P.O. Dogs [5]: None
- Oral Emetic (Dogs), relative molar activity [5]: < 0.50
- I.P. CNS Stimulation (Mice), relative molar activity [6]: 0.18
- Therapeutic Efficacy [7]: 2.31
- Mean acute toxicity and side effect activity (relative molar) [7]: 0.26
- Mean bronchodilator activity (relative molar) [7]: 0.60
- Side effects / tolerance in words (prior art) [9]: few of the usual theophylline-like side effects
- solubility ([10]; water): 330 mg/mL (≈ 1300 mM)
- CF (coronary flow) change [11]: +10 %Δ
- CO (cardiac output) change [11]: -15 %Δ
- CW (cardiac work) change [11]: -30 %Δ
- HR (heart rate) change [11]: +11 ΔBPM
- MAP (mean arterial pressure) change [11]: -20 ΔmmHg
- MCF (myocardial contractile force) change [11]: -5 %Δ
- TPR (total peripheral resistance) change [11]: +3 %Δ
- I.V. Cardiovascular (Dogs), mean relative molar activity [11]: 0.36
- Cardiovascular effects (Mean) [11]: 13
- Diuretic Activity, I.V. Dogs [12]: Moderate
- I.V. Diuretic (Dogs), relative molar activity [12]: 0.26

SMILES: CCCn1c(=O)c2c(ncn2CC(O)CO)n(CCC)c1=O (stereo not shown) [Compound V, 7-(2,3-dihydroxypropyl)-1,3-di-n-propylxanthine]
- Bronchodilator activity, In-Vitro (Tracheal Strip), relative molar activity [1]: 0.99
- selectivity ratio [2]: 3.75
- ED50 [3]: 53 mg/kg
- Emetic effect, I.V. Dogs [4]: None
- I.V. Emetic (Dogs), relative molar activity [4]: 1.91
- MED (minimum emetic dose), P.O. Dogs [5]: 442 mg/kg
- Emetic effect, P.O. Dogs [5]: None
- Oral Emetic (Dogs), relative molar activity [5]: 0.50
- CNS Activity, I.P. Mice [6]: None
- I.P. CNS Stimulation (Mice), relative molar activity [6]: 0.30
- CNS Activity, I.P. Mice, change [6]: -1 %Δ
- Therapeutic Efficacy [7]: 2.51
- Mean acute toxicity and side effect activity (relative molar) [7]: 0.70
- Mean bronchodilator activity (relative molar) [7]: 1.76
- Bronchodilator potency in words [8]: comparable to theophylline as a bronchodilator
- solubility ([10]; chloroform, organic solvent or mixture): ~310 mg/mL (≈ 999 mM)
- solubility ([10]; water): 100 mg/mL (≈ 322 mM)
- Solubility in words [10]: considerably more water soluble than theophylline
- CF (coronary flow) change [11]: +17 %Δ
- CO (cardiac output) change [11]: +6 %Δ
- CW (cardiac work) change [11]: +2 %Δ
- HR (heart rate) change [11]: +7 ΔBPM
- MAP (mean arterial pressure) change [11]: -5 ΔmmHg
- MCF (myocardial contractile force) change [11]: +15 %Δ
- TPR (total peripheral resistance) change [11]: -9 %Δ
- I.V. Cardiovascular (Dogs), mean relative molar activity [11]: 0.91
- Cardiovascular effects (Mean) [11]: 9
- Diuretic Activity, I.V. Dogs [12]: Mild
- I.V. Diuretic (Dogs), relative molar activity [12]: 0.59
- Acute toxicity, emetic, cardiovascular, CNS and diuretic effects in words [13]: less active in regard to acute toxicity as well as undesirable cardiovascular, CNS, diuretic and oral emetic effects

SMILES: CCCn1c(=O)c2c(ncn2CCCO)n(CCC)c1=O [IV, 7-(3-hydroxypropyl)-1,3-di-n-propylxanthine]
- Bronchodilator activity, In-Vitro (Tracheal Strip), relative molar activity [1]: 2.05
- selectivity ratio [2]: 3.57
- ED50 [3]: 7.5 mg/kg
- Emetic effect, I.V. Dogs [4]: Moderate
- I.V. Emetic (Dogs), relative molar activity [4]: 12.88
- MED (minimum emetic dose), P.O. Dogs [5]: 33 mg/kg
- Emetic effect, P.O. Dogs [5]: None
- Oral Emetic (Dogs), relative molar activity [5]: 6.00
- CNS Activity, I.P. Mice [6]: Moderate
- I.P. CNS Stimulation (Mice), relative molar activity [6]: 0.48
- CNS Activity, I.P. Mice, change [6]: -17 %Δ
- Therapeutic Efficacy [7]: 0.72
- Mean acute toxicity and side effect activity (relative molar) [7]: 2.60
- Mean bronchodilator activity (relative molar) [7]: 1.87
- Bronchodilator potency in words [8]: more potent bronchodilators than theophylline
- Side effects / tolerance in words (prior art) [9]: well tolerated
- solubility ([10]; water): 30 mg/mL (≈ 102 mM)
- Solubility in words [10]: low solubilities
- CF (coronary flow) change [11]: +4 %Δ
- CO (cardiac output) change [11]: +2 %Δ
- CW (cardiac work) change [11]: -26 %Δ
- HR (heart rate) change [11]: +80 ΔBPM
- MAP (mean arterial pressure) change [11]: -25 ΔmmHg
- MCF (myocardial contractile force) change [11]: +20 %Δ
- TPR (total peripheral resistance) change [11]: -5 %Δ
- I.V. Cardiovascular (Dogs), mean relative molar activity [11]: 2.02
- Cardiovascular effects (Mean) [11]: 23
- Diuretic Activity, I.V. Dogs [12]: Mild
- I.V. Diuretic (Dogs), relative molar activity [12]: 0.45
- Acute toxicity, emetic, cardiovascular, CNS and diuretic effects in words [13]: increased undesirable emetic, cardiovascular and central nervous system (CNS) effects
